Test results published in patent US20250223268A1, “4-Methylsulfonylbenzamide Compound, Preparation Method, Herbicidal Composition And Use” (Jiangsu Flag Chemical Industry Co., Ltd., priority 2022, published 2025).

Columns and labels:
Assay in all cases: Greenhouse herbicidal activity assay, post-emergence
Type in all cases: in vivo
Echinochloa crusgalli = details: Post-emergence test, rate 150 g a.i./hm^2, grade by fresh weight inhibition rate; for pest or weed control at 150 g/ha: Echinochloa crus-galli, read-out: Control efficacy grade, Echinochloa crusgalli
Outline: (§1)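 Foliar spray at 3-6 leaves; pot-grown in nutrient soil in growth chamber; air-dried post-spray. Read-out at 14-21 d: fresh weight inhibition, graded A (≥80% to 100%) down to E (<20%); NT = not tested.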

Eclipta prostrata = details: Post-emergence test, rate 150 g a.i./hm^2, grade by fresh weight inhibition rate; for pest or weed control at 150 g/ha: Eclipta prostrata, read-out: Control efficacy grade, Eclipta prostrata
Outline: as §1

Leptochloa chinensis = details: Post-emergence test, rate 150 g a.i./hm^2, grade by fresh weight inhibition rate; for pest or weed control at 150 g/ha: Dinebra chinensis, read-out: Control efficacy grade, Leptochloa chinensis
Outline: as §1

Digitaria sanguinalis = details: Post-emergence test, rate 150 g a.i./hm^2, grade by fresh weight inhibition rate; for pest or weed control at 150 g/ha: Digitaria sanguinalis, read-out: Control efficacy grade, Digitaria sanguinalis
Outline: as §1

Cyperus iria = details: Post-emergence test, rate 150 g a.i./hm^2, grade by fresh weight inhibition rate; for pest or weed control at 150 g/ha: Cyperus iria, read-out: Control efficacy grade, Cyperus iria
Outline: as §1

Row | SMILES | Control efficacy grade, Echinochloa crusgalli (Echinochloa crusgalli) | Control efficacy grade, Eclipta prostrata (Eclipta prostrata) | Control efficacy grade, Leptochloa chinensis (Leptochloa chinensis) | Control efficacy grade, Digitaria sanguinalis (Digitaria sanguinalis) | Control efficacy grade, Cyperus iria (Cyperus iria) | pest or weed control at 150 g/ha (Echinochloa crusgalli) [%] | pest or weed control at 150 g/ha (Eclipta prostrata) [%] | pest or weed control at 150 g/ha (Leptochloa chinensis) [%] | pest or weed control at 150 g/ha (Digitaria sanguinalis) [%] | pest or weed control at 150 g/ha (Cyperus iria) [%]
1 | CC(C)CSc1c(S(C)(=O)=O)ccc(C(=O)Nc2nnco2)c1Cl [Compound 3-293] | A (Fresh weight inhibition rate≥80% to 100%) | A (Fresh weight inhibition rate≥80% to 100%) | A (Fresh weight inhibition rate≥80% to 100%) | A (Fresh weight inhibition rate≥80% to 100%) | A (Fresh weight inhibition rate≥80% to 100%) | – | – | – | – | –
2 | CS(=O)(=O)c1ccc(C(=O)Nc2nnco2)c(Cl)c1SCC1CC1 [Compound 3-298] | A (Fresh weight inhibition rate≥80% to 100%) | A (Fresh weight inhibition rate≥80% to 100%) | A (Fresh weight inhibition rate≥80% to 100%) | A (Fresh weight inhibition rate≥80% to 100%) | A (Fresh weight inhibition rate≥80% to 100%) | – | – | – | – | –
3 | CS(=O)(=O)c1ccc(C(=O)Nc2nnco2)c(Cl)c1SC1CC1 [Compound 3-303] | A (Fresh weight inhibition rate≥80% to 100%) | A (Fresh weight inhibition rate≥80% to 100%) | A (Fresh weight inhibition rate≥80% to 100%) | A (Fresh weight inhibition rate≥80% to 100%) | B (Fresh weight inhibition rate≥260% to <80%) | – | – | – | – | –
4 | CS(=O)(=O)c1ccc(C(=O)Nc2nnco2)c(Cl)c1SC1CCC1 [Compound 3-308] | A (Fresh weight inhibition rate≥80% to 100%) | A (Fresh weight inhibition rate≥80% to 100%) | A (Fresh weight inhibition rate≥80% to 100%) | A (Fresh weight inhibition rate≥80% to 100%) | A (Fresh weight inhibition rate≥80% to 100%) | – | – | – | – | –
5 | CS(=O)(=O)c1ccc(C(=O)Nc2nnco2)c(Cl)c1SC1CCCC1 [Compound 3-313] | A (Fresh weight inhibition rate≥80% to 100%) | A (Fresh weight inhibition rate≥80% to 100%) | A (Fresh weight inhibition rate≥80% to 100%) | A (Fresh weight inhibition rate≥80% to 100%) | A (Fresh weight inhibition rate≥80% to 100%) | – | – | – | – | –
6 | CS(=O)(=O)c1ccc(C(=O)Nc2nnco2)c(Cl)c1SC1CCCCC1 [Compound 3-318] | A (Fresh weight inhibition rate≥80% to 100%) | A (Fresh weight inhibition rate≥80% to 100%) | A (Fresh weight inhibition rate≥80% to 100%) | A (Fresh weight inhibition rate≥80% to 100%) | A (Fresh weight inhibition rate≥80% to 100%) | – | – | – | – | –
7 | CS(=O)(=O)c1ccc(C(=O)Nc2nnco2)c(Cl)c1SCC(F)(F)F [Compound 3-323] | A (Fresh weight inhibition rate≥80% to 100%) | A (Fresh weight inhibition rate≥80% to 100%) | A (Fresh weight inhibition rate≥80% to 100%) | A (Fresh weight inhibition rate≥80% to 100%) | A (Fresh weight inhibition rate≥80% to 100%) | – | – | – | – | –
8 | CS(=O)(=O)c1ccc(C(=O)Nc2nnco2)c(Cl)c1SCC(F)F [Compound 3-328] | A (Fresh weight inhibition rate≥80% to 100%) | A (Fresh weight inhibition rate≥80% to 100%) | A (Fresh weight inhibition rate≥80% to 100%) | A (Fresh weight inhibition rate≥80% to 100%) | A (Fresh weight inhibition rate≥80% to 100%) | – | – | – | – | –
9 | C=CCSc1c(S(C)(=O)=O)ccc(C(=O)Nc2nnco2)c1Cl [Compound 3-338] | A (Fresh weight inhibition rate≥80% to 100%) | A (Fresh weight inhibition rate≥80% to 100%) | A (Fresh weight inhibition rate≥80% to 100%) | C (Fresh weight inhibition rate≥40% to <60%) | A (Fresh weight inhibition rate≥80% to 100%) | – | – | – | – | –
10 | CS(=O)(=O)c1ccc(C(=O)Nc2nnco2)c(Cl)c1SCCC#N [Compound 3-373] | A (Fresh weight inhibition rate≥80% to 100%) | A (Fresh weight inhibition rate≥80% to 100%) | A (Fresh weight inhibition rate≥80% to 100%) | A (Fresh weight inhibition rate≥80% to 100%) | A (Fresh weight inhibition rate≥80% to 100%) | – | – | – | – | –
11 | CCCSc1c(S(C)(=O)=O)ccc(C(=O)Nc2nnc(CC)o2)c1Cl [Compound 3-383] | A (Fresh weight inhibition rate≥80% to 100%) | A (Fresh weight inhibition rate≥80% to 100%) | B (Fresh weight inhibition rate≥260% to <80%) | B (Fresh weight inhibition rate≥260% to <80%) | A (Fresh weight inhibition rate≥80% to 100%) | – | – | – | – | –
12 | CCc1nnc(NC(=O)c2ccc(S(C)(=O)=O)c([S+]([O-])C(C)C)c2Cl)o1 (centres unmarked) [Compound 3-389, 2-chloro-N-(5-ethyl-1,3,4-oxadiazol-2-yl)-3-(isopropylsulfinyl)-4-(methylsulfonyl)benzamide] | – | – | – | – | – | 80 to 100 | 80 to 100 | 80 to 100 | 80 to 100 | 80 to 100
13 | CCc1nnc(NC(=O)c2ccc(S(C)(=O)=O)c(SCC3CC3)c2Cl)o1 [Compound 3-414] | A (Fresh weight inhibition rate≥80% to 100%) | A (Fresh weight inhibition rate≥80% to 100%) | A (Fresh weight inhibition rate≥80% to 100%) | A (Fresh weight inhibition rate≥80% to 100%) | A (Fresh weight inhibition rate≥80% to 100%) | – | – | – | – | –
14 | CCc1nnc(NC(=O)c2ccc(S(C)(=O)=O)c(SC3CC3)c2Cl)o1 [Compound 3-419] | A (Fresh weight inhibition rate≥80% to 100%) | A (Fresh weight inhibition rate≥80% to 100%) | A (Fresh weight inhibition rate≥80% to 100%) | A (Fresh weight inhibition rate≥80% to 100%) | A (Fresh weight inhibition rate≥80% to 100%) | – | – | – | – | –
15 | CCc1nnc(NC(=O)c2ccc(S(C)(=O)=O)c(SC3CCC3)c2Cl)o1 [Compound 3-424] | A (Fresh weight inhibition rate≥80% to 100%) | A (Fresh weight inhibition rate≥80% to 100%) | A (Fresh weight inhibition rate≥80% to 100%) | A (Fresh weight inhibition rate≥80% to 100%) | A (Fresh weight inhibition rate≥80% to 100%) | – | – | – | – | –
16 | CCc1nnc(NC(=O)c2ccc(S(C)(=O)=O)c(SCC(F)(F)F)c2Cl)o1 [Compound 3-439] | A (Fresh weight inhibition rate≥80% to 100%) | A (Fresh weight inhibition rate≥80% to 100%) | A (Fresh weight inhibition rate≥80% to 100%) | A (Fresh weight inhibition rate≥80% to 100%) | A (Fresh weight inhibition rate≥80% to 100%) | – | – | – | – | –
17 | CCC[S+]([O-])c1c(S(C)(=O)=O)ccc(C(=O)Nc2nnc(C(C)C)o2)c1Cl (centres unmarked) [Compound 3-500, 2-chloro-N-(5-isopropyl-1,3,4-oxadiazol-2-yl)-4-(methylsulfonyl)-3-(propylsulfinyl)benzamide] | – | – | – | – | – | 80 to 100 | 80 to 100 | 80 to 100 | 80 to 100 | 80 to 100
18 | CS(=O)(=O)c1ccc(C(=O)Nc2nnc(C3CC3)o2)c(Cl)c1SC1CC1 [Compound 3-651] | A (Fresh weight inhibition rate≥80% to 100%) | A (Fresh weight inhibition rate≥80% to 100%) | A (Fresh weight inhibition rate≥80% to 100%) | A (Fresh weight inhibition rate≥80% to 100%) | A (Fresh weight inhibition rate≥80% to 100%) | – | – | – | – | –
19 | Cc1nonc1NC(=O)c1ccc(S(C)(=O)=O)c([S+]([O-])CC2CC2)c1Cl (centres unmarked) [Compound 4-33, 2-chloro-3-((cyclopropylmethyl)sulfinyl)-N-(4-methyl-1,2,5-oxadiazol-3-yl)-4-(methylsulfonyl)benzamide] | – | – | – | – | – | 80 to 100 | 80 to 100 | 80 to 100 | 80 to 100 | 80 to 100
